PubChem BioAssay (NCI)
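Test compounds were applied to cells in 96-well plates for 48 hours at 5 doses. Abbreviation: GI50, concentration required for 50% inhibition of growth. At the TGI there is no net growth.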

How the values were obtained:
Test in all cases: DTP human tumour cell line panel, 48 h
A549 NSCLC = tested on: A549 NSCLC
IGROV1 ovarian = tested on: IGROV1 ovarian
NCI-H460 lung = tested on: NCI-H460 lung
OVCAR-3 ovarian = tested on: OVCAR-3 ovarian
OVCAR-5 ovarian = tested on: OVCAR-5 ovarian
SK-MEL-5 melanoma = tested on: SK-MEL-5 melanoma
SNB-19 CNS = tested on: SNB-19 CNS
UACC-62 melanoma = tested on: UACC-62 melanoma
UO-31 renal = tested on: UO-31 renal
NCI-H226 lung = tested on: NCI-H226 lung

Structure (SMILES)	TGI (A549 NSCLC) [µM]	TGI (IGROV1 ovarian) [µM]	TGI (NCI-H460 lung) [µM]	TGI (OVCAR-3 ovarian) [µM]	TGI (OVCAR-5 ovarian) [µM]	TGI (SK-MEL-5 melanoma) [µM]	TGI (SNB-19 CNS) [µM]	TGI (UACC-62 melanoma) [µM]	TGI (UO-31 renal) [µM]	TGI (NCI-H226 lung) [µM]	GI50 (A549 NSCLC) [µM]	GI50 (IGROV1 ovarian) [µM]	GI50 (NCI-H226 lung) [µM]	GI50 (NCI-H460 lung) [µM]	GI50 (OVCAR-3 ovarian) [µM]	GI50 (OVCAR-5 ovarian) [µM]	GI50 (SK-MEL-5 melanoma) [µM]	GI50 (SNB-19 CNS) [µM]	GI50 (UACC-62 melanoma) [µM]	GI50 (UO-31 renal) [µM]
COc1ccc(-c2nnc3c4ccccc4sn23)cc1	> 100	> 100	> 100	61.5	> 100	> 100	> 100	> 100	80.5											
O=C1CNC(=O)N1	> 1120	> 1120	> 1120	> 1120	> 1120	> 1120	> 1120	> 1120	> 1120	> 1120										
COc1ccc2c(c1)C(=O)/C(=C/c1ccccc1)C2		> 100	> 100	> 100	> 100	> 100	> 100	> 100	> 100	> 100										
Cc1cc(C)c(S(=O)(=O)N(CCCCCCN)OCCCON(CCCCCCN)S(=O)(=O)c2c(C)cc(C)cc2C)c(C)c1	3.24	3.22	3.07	3.34	2.72		3.01	3.15	4.04											
Fc1cc(C2=Nn3c(nnc3-c3cc(F)c(Cl)cc3Cl)SC2)c(Cl)cc1Cl	83.5	> 100	> 100	46.9	> 100	30.3	93.4	38.6	> 100	36	23.7	29.8	14.9	17.6	11.5	56.8	13.4	22.7	13.3	31.3
CC1(C)CCCC2(C)[C@@H]1CC[C@]13C[C@](C)(CC[C@@H]21)[C@@H]3CO (some centres not stated)	> 100	> 100	> 100	> 100	> 100	> 100	> 100	> 100	> 100	> 100										
O=c1n(Cc2ccccc2)c2ccccc2n1CC1CS1 (configuration not stated)	> 100	> 100		> 100	> 100		> 100	> 100	> 100	> 100										
COc1cc(CN(C)N2C(=O)c3cccc4cc([N+](=O)[O-])cc(c34)C2=O)cc(OC)c1OC		> 100	> 100	> 100	> 100	> 100	> 100	> 100	> 100	> 100										
CCOC(=O)c1csc(NC(=O)CCN2CCOCC2)n1	> 100	> 100	> 100	> 100	> 100	> 100	> 100	> 100	> 100											
